In PubChem BioAssay AID248 (DTP/NCI, 2004):
Where “and” joins values, the source holds several entries; their conditions need not be identical. Equal values may be shown once. Toxic doses and inconclusive results are not listed. Rule as the data show it: active = T/C of 150% or more; inactive = T/C below 125%.

Tested on: L1210 leukemia ip in BDF1 mice, survival T/C
Experiment: NCI In Vivo Anticancer Drug Screen. Data for tumor model L1210 Leukemia (intraperitoneal) in B6D2F1 (BDF1) mice
Settings: endpoint: mean survival time, higher = longer survival
Summary of the method: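 Tumor was transplanted into mice, which were then dosed with test compound or vehicle alone. Survival was recorded for each group, and the treated figure was expressed relative to the control figure.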

[1] = dose: 100.0 mg/kg/injection, schedule: Q01DX009 (ip), vehicle: saline with Tween-80
[2] = dose: 100.0 mg/kg/injection, schedule: Q04DX003 (ip), vehicle: saline with Tween-80
[3] = dose: 200.0 mg/kg/injection, schedule: Q01DX009 (ip), vehicle: saline with Tween-80
[4] = dose: 200.0 mg/kg/injection, schedule: Q04DX003 (ip), vehicle: saline with Tween-80
[5] = dose: 400.0 mg/kg/injection, schedule: Q04DX003 (ip), vehicle: saline with Tween-80
[6] = dose: 100.0 mg/kg/injection, schedule: Q01DX009 (ip), vehicle: Klucel (hydroxypropylcellulose) (HPC)
[7] = dose: 100.0 mg/kg/injection, schedule: Q04DX003 (ip), vehicle: Klucel (hydroxypropylcellulose) (HPC)
[8] = dose: 200.0 mg/kg/injection, schedule: Q01DX009 (ip), vehicle: Klucel (hydroxypropylcellulose) (HPC)
[9] = dose: 200.0 mg/kg/injection, schedule: Q04DX003 (ip), vehicle: Klucel (hydroxypropylcellulose) (HPC)
[10] = dose: 400.0 mg/kg/injection, schedule: Q01DX009 (ip), vehicle: Klucel (hydroxypropylcellulose) (HPC)
[11] = dose: 400.0 mg/kg/injection, schedule: Q04DX003 (ip), vehicle: Klucel (hydroxypropylcellulose) (HPC)
[12] = dose: 100.0 mg/kg/injection, schedule: Q01DX001 (ip), vehicle: Klucel (hydroxypropylcellulose) (HPC)
[13] = dose: 200.0 mg/kg/injection, schedule: Q01DX001 (ip), vehicle: Klucel (hydroxypropylcellulose) (HPC)

Measured: T/C

Oc1ccc(Cl)cc1Sc1cc(Cl)ccc1O
inactive: dose: 25.0 mg/kg/injection, schedule: Q04DX003 (ip), vehicle: other 103 % of control | dose: 50.0 mg/kg/injection, schedule: Q01DX009 (ip), vehicle: other 95 % of control | dose: 50.0 mg/kg/injection, schedule: Q04DX003 (ip), vehicle: other 97 % of control | dose: 100.0 mg/kg/injection, schedule: Q01DX009 (ip), vehicle: other 111 % of control | dose: 100.0 mg/kg/injection, schedule: Q04DX003 (ip), vehicle: other 92 % of control | dose: 100.0 mg/kg/injection, schedule: Q04DX003 (ip), vehicle: saline 86 % of control | dose: 200.0 mg/kg/injection, schedule: Q01DX009 (ip), vehicle: other 95 % of control

Cc1ccc(S(=O)(=O)N/N=C2\CC3(Cl)CCC2C3)cc1 (configuration not stated)
inactive: [1] 88 % of control | [2] 92 % of control | [3] 91 % of control | [4] 97 % of control | [5] 101 % of control

c1ccc(C2=C(c3ccccc3)C23SCCS3)cc1
inactive: [6] 101 % of control | [7] 94 % of control | [8] 97 % of control | [9] 100 % of control | [10] 98 % of control | [11] 96 % of control

c1ccc(OP(Oc2ccccc2)c2ccccc2)cc1
inactive: dose: 100.0 mg/kg/injection, schedule: Q01DX009 (ip), vehicle: saline 108 % of control | [7] 105 % of control | dose: 200.0 mg/kg/injection, schedule: Q01DX009 (ip), vehicle: saline 115 % of control | [9] 102 % of control | [11] 98 % of control

COc1ccc2c(c1)C(=O)CC(C)N2S(=O)(=O)c1ccc(C)cc1 (configuration not stated)
inactive: dose: 18.75 mg/kg/injection, schedule: Q04DX002 (ip), vehicle: Klucel (hydroxypropylcellulose) (HPC) 95 % of control | dose: 37.5 mg/kg/injection, schedule: Q04DX002 (ip), vehicle: Klucel (hydroxypropylcellulose) (HPC) 113 % of control | dose: 75.0 mg/kg/injection, schedule: Q04DX002 (ip), vehicle: Klucel (hydroxypropylcellulose) (HPC) 103 % of control | dose: 150.0 mg/kg/injection, schedule: Q04DX002 (ip), vehicle: Klucel (hydroxypropylcellulose) (HPC) 98 % of control and 103 % of control | dose: 300.0 mg/kg/injection, schedule: Q04DX002 (ip), vehicle: Klucel (hydroxypropylcellulose) (HPC) 87 % of control

C=CCOc1ccn(CC=C)c(=O)n1
inactive: [12] 96 % of control | [13] 98 % of control | dose: 400.0 mg/kg/injection, schedule: Q01DX001 (ip), vehicle: Klucel (hydroxypropylcellulose) (HPC) 105 % of control

CCOC(=O)C(=[N+]=[N-])S(=O)(=O)c1ccccc1
inactive: [2] 97 % of control | [4] 101 % of control | [5] 114 % of control

CC(=O)c1ccc(C(C)=O)c(OCc2ccccc2)c1
inactive: [6] 101 % of control | [7] 103 % of control | [8] 95 % of control | [9] 98 % of control | [10] 92 % of control | [11] 97 % of control

CCCC(=O)NC1CC(OC2CC(O)(C(C)=O)Cc3c(O)c4c(c(O)c32)C(=O)c2c(OC)cccc2C4=O)OC(C)C1O (configuration not stated)
inactive: dose: 0.25 mg/kg/injection, schedule: Q01DX009 (ip), vehicle: saline 91 % of control | dose: 0.5 mg/kg/injection, schedule: Q01DX009 (ip), vehicle: saline 96 % of control | dose: 1.0 mg/kg/injection, schedule: Q01DX009 (ip), vehicle: saline 91 % of control | dose: 2.0 mg/kg/injection, schedule: Q01DX009 (ip), vehicle: saline 93 % of control | dose: 4.0 mg/kg/injection, schedule: Q01DX009 (ip), vehicle: saline 96 % of control

CC(C)(C)C(=O)CC(=O)C(C)(C)C.CC(C)(C)C(=O)CC(=O)C(C)(C)C.CC(C)(C)C(=O)CC(=O)C(C)(C)C.CC(C)(C)C(=O)CC(=O)C(C)(C)C.[Ce]
inactive: [6] 100 % of control | [7] 103 % of control | [8] 96 % of control | [9] 94 % of control | [10] 107 % of control | [11] 106 % of control

Cc1cc([N+](=O)[O-])c([N+](=O)[O-])cc1Cl
inactive: dose: 50.0 mg/kg/injection, schedule: Q01DX009 (ip), vehicle: saline with Tween-80 115 % of control | [12] 105 % of control | [1] 115 % of control | [13] 115 % of control | [3] 109 % of control

O=C(CCOCc1ccccc1)N1Cc2cc3ccccc3nc2C1
inactive: dose: 10.0 mg/kg/injection, schedule: Q04DX003 (ip), vehicle: alcohol 96 % of control | dose: 20.0 mg/kg/injection, schedule: Q04DX003 (ip), vehicle: alcohol 97 % of control | dose: 40.0 mg/kg/injection, schedule: Q04DX003 (ip), vehicle: alcohol 92 % of control | dose: 80.0 mg/kg/injection, schedule: Q04DX003 (ip), vehicle: alcohol 103 % of control | dose: 160.0 mg/kg/injection, schedule: Q04DX003 (ip), vehicle: alcohol 92 % of control

C[N+]1(C)C2CCC1C(CO)C(O)C2 (configuration not stated)
inactive: dose: 100.0 mg/kg/injection, schedule: Q01DX001 (ip), vehicle: saline 94 % of control | dose: 200.0 mg/kg/injection, schedule: Q01DX001 (ip), vehicle: saline 97 % of control | dose: 400.0 mg/kg/injection, schedule: Q01DX001 (ip), vehicle: saline 94 % of control

CC(C)SP(=S)(C(C)C)C(C)C
inactive: dose: 100.0 mg/kg/injection, schedule: Q01DX001 (ip), vehicle: saline with Tween-80 115 % of control | dose: 200.0 mg/kg/injection, schedule: Q01DX001 (ip), vehicle: saline with Tween-80 102 % of control | dose: 400.0 mg/kg/injection, schedule: Q01DX001 (ip), vehicle: saline with Tween-80 94 % of control

O=[N+]([O-])c1ccc(NN=C(C2CC2)C2CC2)c([N+](=O)[O-])c1
inactive: dose: 100.0 mg/kg/injection, schedule: Q01DX001 (ip), vehicle: other 95 % of control | dose: 200.0 mg/kg/injection, schedule: Q01DX001 (ip), vehicle: other 98 % of control | dose: 400.0 mg/kg/injection, schedule: Q01DX001 (ip), vehicle: other 88 % of control

CCN(CC)C(C)CNc1cc(C)nc(/N=C(\N)Nc2ccc(Cl)c(Cl)c2)n1 (configuration not stated)
inactive: dose: 2.35 mg/kg/injection, schedule: Q01DX009 (ip), vehicle: Klucel (hydroxypropylcellulose) (HPC) 110 % of control | dose: 4.69 mg/kg/injection, schedule: Q01DX009 (ip), vehicle: Klucel (hydroxypropylcellulose) (HPC) 100 % of control | dose: 9.38 mg/kg/injection, schedule: Q01DX009 (ip), vehicle: Klucel (hydroxypropylcellulose) (HPC) 98 % of control and 100 % of control | dose: 37.5 mg/kg/injection, schedule: Q01DX009 (ip), vehicle: Klucel (hydroxypropylcellulose) (HPC) 100 % of control | dose: 75.0 mg/kg/injection, schedule: Q01DX001 (ip), vehicle: other 97 % of control

Cc1c(Cl)cc(C(C)C)c(O)c1CN1CCOCC1
inactive: dose: 222.0 mg/kg/injection, schedule: Q01DX Z (ip), vehicle: methylcellulose (MC) 96 % of control | dose: 333.0 mg/kg/injection, schedule: Q01DX Z (ip), vehicle: methylcellulose (MC) 109 % of control | dose: 500.0 mg/kg/injection, schedule: Q01DX Z (ip), vehicle: methylcellulose (MC) 102 % of control

CC(C)=CCc1c(N)nc(N)[nH]c1=O
inactive: dose: 100.0 mg/kg/injection, schedule: Q04DX002 (ip), vehicle: Klucel (hydroxypropylcellulose) (HPC) 98 % of control | dose: 200.0 mg/kg/injection, schedule: Q04DX002 (ip), vehicle: Klucel (hydroxypropylcellulose) (HPC) 98 % of control | dose: 400.0 mg/kg/injection, schedule: Q04DX002 (ip), vehicle: Klucel (hydroxypropylcellulose) (HPC) 106 % of control

CC1CCc2cc3c4ccccc4n(C)c3cc2C1 (configuration not stated)
inactive: dose: 75.0 mg/kg/injection, schedule: Q01DX001 (ip), vehicle: carboxymethylcellulose (CMC) 107 % of control | dose: 150.0 mg/kg/injection, schedule: Q01DX001 (ip), vehicle: carboxymethylcellulose (CMC) 109 % of control | dose: 300.0 mg/kg/injection, schedule: Q01DX001 (ip), vehicle: carboxymethylcellulose (CMC) 109 % of control

NS(=O)(=O)c1ccc(N2CCCCC2)c([N+](=O)[O-])c1
inactive: dose: 100.0 mg/kg/injection, schedule: Q01DX005 (ip), vehicle: other 105 % of control | dose: 200.0 mg/kg/injection, schedule: Q01DX005 (ip), vehicle: other 94 % of control | dose: 400.0 mg/kg/injection, schedule: Q01DX005 (ip), vehicle: other 108 % of control
